The NIST ThermoML archive (doi:10.1016/j.tca.2010.01.005)
± gives the expanded uncertainty stated by the source.

Assay: excess molar enthalpy (molar enthalpy of mixing); xn = mol fraction of the nth substance listed
Conditions: 303.15 K, 101 kPa, Liquid, Calvet calorimetry

BrCBr [dibromomethane] + CC#N
Conditions | excess molar enthalpy [kcal/mol]
x1 = 0.1028 | 0.0213 ± 0.000478
x1 = 0.2166 | 0.0349 ± 0.000478
x1 = 0.3067 | 0.0413 ± 0.000717
x1 = 0.4007 | 0.0428 ± 0.000717
x1 = 0.5547 | 0.0359 ± 0.000478
x1 = 0.6564 | 0.0256 ± 0.000478
x1 = 0.7022 | 0.0213 ± 0.000478
x1 = 0.8786 | 0.0055 ± 0.000239

BrCBr [dibromomethane] + CC(=O)c1ccccc1
Conditions | excess molar enthalpy [kcal/mol]
x1 = 0.1763 | -0.0244 ± 0.000478
x1 = 0.3362 | -0.0354 ± 0.000478
x1 = 0.4052 | -0.0387 ± 0.000717
x1 = 0.4229 | -0.0382 ± 0.000478
x1 = 0.5115 | -0.0382 ± 0.000478
x1 = 0.6248 | -0.0361 ± 0.000478
x1 = 0.7449 | -0.0272 ± 0.000478
x1 = 0.852 | -0.0182 ± 0.000478

c1ccoc1 [furan] + BrCBr
Conditions | excess molar enthalpy [kcal/mol]
x2 = 0.1499 | 0.0447 ± 0.000717
x2 = 0.2828 | 0.0554 ± 0.000717
x2 = 0.3405 | 0.0552 ± 0.000717
x2 = 0.4247 | 0.0507 ± 0.000717
x2 = 0.6268 | 0.0397 ± 0.000717
x2 = 0.7204 | 0.0344 ± 0.000478
x2 = 0.8358 | 0.0261 ± 0.000478
x2 = 0.9381 | 0.0131 ± 0.000239
